How the values were obtained:
Experiment in all cases: cells
Format in all cases: functional, cell-based, Homo sapiens
TK-10 = settings: Homo sapiens, TK-10;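 also: growth inhibition of TK-10 cells, read out in a cell viability assay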
Description: SANGER: Inhibition of human TK10 cell growth in a cell viability assay.

KALS-1 = settings: Homo sapiens, KALS-1;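 also: growth inhibition of KALS-1 cells, determined with a cell viability assay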
Description: SANGER: Inhibition of human KALS-1 cell growth in a cell viability assay.

MZ2-MEL = settings: Homo sapiens, MZ2-MEL;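 also: growth inhibition of MZ2-MEL cells read out with a cell viability assay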
Description: SANGER: Inhibition of human MZ2-MEL cell growth in a cell viability assay.

RKO = settings: Homo sapiens, RKO;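 also: growth inhibition of human RKO cells, read out with a cell viability assay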
Description: SANGER: Inhibition of human RKO cell growth in a cell viability assay.

LS-513 = settings: Homo sapiens, LS-513
Description: SANGER: Inhibition of human LS-513 cell growth in a cell viability assay.

NEC8 = settings: Homo sapiens, NEC8;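 also: growth inhibition of human NEC8 cells, read out by a cell viability assay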
Description: SANGER: Inhibition of human NEC8 cell growth in a cell viability assay.

TE-11 = settings: Homo sapiens, TE-11;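 also: growth inhibition of human TE-11 cells, read out by a cell viability assay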
Description: SANGER: Inhibition of human TE-11 cell growth in a cell viability assay.

PSN1 = settings: Homo sapiens, PSN1;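 also: suppression of growth of human PSN1 cells, read out by a cell viability assay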
Description: SANGER: Inhibition of human PSN1 cell growth in a cell viability assay.

SW872 = settings: Homo sapiens, SW872;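 also: growth inhibition of SW872 cells, read out by a viability assay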
Description: SANGER: Inhibition of human SW872 cell growth in a cell viability assay.

ES4 = settings: Homo sapiens, ES4;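 also: growth inhibition of human ES4 cells, read out by a cell viability assay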
Description: SANGER: Inhibition of human ES4 cell growth in a cell viability assay.

NCI-H1650 = settings: Homo sapiens, NCI-H1650;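 also: growth inhibition of human NCI-H1650 cells measured by a cell viability assay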
Description: SANGER: Inhibition of human NCI-H1650 cell growth in a cell viability assay.

NCI-N87 = settings: Homo sapiens, NCI-N87;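 also: growth inhibition of human NCI-N87 cells, read out with a cell viability assay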
Description: SANGER: Inhibition of human NCI-N87 cell growth in a cell viability assay.

LB373-MEL-D = settings: Homo sapiens, LB373-MEL-D;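 also: growth inhibition of the cell line, read out in a cell viability assay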
Description: SANGER: Inhibition of human LB373-MEL-D cell growth in a cell viability assay.

CW-2 = settings: Homo sapiens, CW-2;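 also: growth inhibition of CW-2 cells, read out by a cell viability assay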
Description: SANGER: Inhibition of human CW-2 cell growth in a cell viability assay.

LS-411N = settings: Homo sapiens, LS-411N
EC-GI-10 = settings: Homo sapiens, EC-GI-10
Description: SANGER: Inhibition of human EC-GI-10 cell growth in a cell viability assay.

NCI-H1581 = settings: Homo sapiens, NCI-H1581;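 also: cell growth inhibition read out by a viability assay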
Description: SANGER: Inhibition of human NCI-H1581 cell growth in a cell viability assay.

A101D = settings: Homo sapiens, A101D;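 also: growth inhibition of the cell line, measured with a viability assay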
Description: SANGER: Inhibition of human A101D cell growth in a cell viability assay.

LC-2-ad = settings: Homo sapiens, LC-2-ad;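 also: growth inhibition of human LC-2-ad cells, read out with a cell viability assay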
Description: SANGER: Inhibition of human LC-2-ad cell growth in a cell viability assay.

NOS-1 = settings: Homo sapiens, NOS-1;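 also: growth inhibition of the human NOS-1 cell line, read out with a cell viability assay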
Description: SANGER: Inhibition of human NOS-1 cell growth in a cell viability assay.

KGN = settings: Homo sapiens, KGN;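 also: growth inhibition of KGN cells, read out with a cell viability assay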
Description: SANGER: Inhibition of human KGN cell growth in a cell viability assay.

NB10 = settings: Homo sapiens, NB10;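 also: growth inhibition of NB10 cells, read out by a cell viability assay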
Description: SANGER: Inhibition of human NB10 cell growth in a cell viability assay.

ES6 = settings: Homo sapiens, ES6;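 also: growth inhibition of human ES6 cells, read out with a cell viability assay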
Description: SANGER: Inhibition of human ES6 cell growth in a cell viability assay.

ES7 = settings: Homo sapiens, ES7;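 also: growth inhibition of cultured human ES7 cells, read out as cell viability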
Description: SANGER: Inhibition of human ES7 cell growth in a cell viability assay.

BT-474 = settings: Homo sapiens, BT-474
Description: SANGER: Inhibition of human BT-474 cell growth in a cell viability assay.

SW684 = settings: Homo sapiens, SW684;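 also: growth inhibition of human SW684 cells, measured by a cell viability assay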
Description: SANGER: Inhibition of human SW684 cell growth in a cell viability assay.

SCH = settings: Homo sapiens, SCH;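 also: growth inhibition of human SCH cells, read out in a cell viability assay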
Description: SANGER: Inhibition of human SCH cell growth in a cell viability assay.

TE-10 = settings: Homo sapiens, TE-10;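 also: growth inhibition of TE-10 cells, measured by a cell viability assay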
Description: SANGER: Inhibition of human TE-10 cell growth in a cell viability assay.

LB831-BLC = settings: Homo sapiens, LB831-BLC;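 also: growth inhibition of LB831-BLC cells, read out with a cell viability assay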
Description: SANGER: Inhibition of human LB831-BLC cell growth in a cell viability assay.

ES5 = settings: Homo sapiens, ES5;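 also: growth inhibition of human ES5 cells, read out by a cell viability assay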
Description: SANGER: Inhibition of human ES5 cell growth in a cell viability assay.

NMC-G1 = settings: Homo sapiens, NMC-G1;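 also: growth inhibition of the NMC-G1 cell line, measured with a cell viability read-out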
Description: SANGER: Inhibition of human NMC-G1 cell growth in a cell viability assay.

KINGS-1 = settings: Homo sapiens, KINGS-1;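 also: cell viability assay measuring suppression of KINGS-1 cell growth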
Description: SANGER: Inhibition of human KINGS-1 cell growth in a cell viability assay.

GI-ME-N = settings: Homo sapiens, GI-ME-N;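 also: growth inhibition of human GI-ME-N cells, read out with a cell viability assay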
Description: SANGER: Inhibition of human GI-ME-N cell growth in a cell viability assay.

NCI-H1648 = settings: Homo sapiens, NCI-H1648;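 also: cell viability assay measuring inhibition of NCI-H1648 cell growth, from the Sanger screening data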
Description: SANGER: Inhibition of human NCI-H1648 cell growth in a cell viability assay.

ACN = settings: Homo sapiens, ACN;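 also: growth inhibition of the human ACN cell line, read out via cell viability testing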
Description: SANGER: Inhibition of human ACN cell growth in a cell viability assay.

Lu-65 = settings: Homo sapiens, Lu-65;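 also: growth inhibition of Lu-65 cancer cells, read out by a cell viability assay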
Description: SANGER: Inhibition of human LU-65 cell growth in a cell viability assay.

KG-1 = settings: Homo sapiens, KG-1;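 also: growth inhibition of KG-1 cells, read out by a cell viability assay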
Description: SANGER: Inhibition of human KG-1 cell growth in a cell viability assay.

K562 = settings: Homo sapiens, K562
Description: SANGER: Inhibition of human K-562 cell growth in a cell viability assay.

JVM-2 = settings: Homo sapiens, JVM-2;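 also: growth inhibition of JVM-2 cells determined by a cell viability assay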
Description: SANGER: Inhibition of human JVM-2 cell growth in a cell viability assay.

KARPAS-45 = settings: Homo sapiens, KARPAS-45;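 also: inhibition of cell line growth, read out through a viability assay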
Description: SANGER: Inhibition of human KARPAS-45 cell growth in a cell viability assay.

NOMO-1 = settings: Homo sapiens, NOMO-1;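 also: growth inhibition of human NOMO-1 cells measured by a cell viability assay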
Description: SANGER: Inhibition of human NOMO-1 cell growth in a cell viability assay.

KE-37 = settings: Homo sapiens, KE-37;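 also: growth inhibition of KE-37 cells, read out with a cell viability assay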
Description: SANGER: Inhibition of human KE-37 cell growth in a cell viability assay.

RPMI-8226 = settings: Homo sapiens, RPMI-8226
Description: SANGER: Inhibition of human RPMI-8226 cell growth in a cell viability assay.

NCI-H446 = settings: Homo sapiens, NCI-H446;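 also: growth inhibition of NCI-H446 cells determined by a cell viability assay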
Description: SANGER: Inhibition of human NCI-H446 cell growth in a cell viability assay.

JVM-3 = settings: Homo sapiens, JVM-3;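 also: growth inhibition of human JVM-3 cells, read out with a cell viability assay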
Description: SANGER: Inhibition of human JVM-3 cell growth in a cell viability assay.

KARPAS-299 = settings: Homo sapiens, KARPAS-299
Description: SANGER: Inhibition of human KARPAS-299 cell growth in a cell viability assay.

SBC-1 = settings: Homo sapiens, SBC-1;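 also: cell viability assay measuring growth inhibition of the SBC-1 cell line, IC50 being the concentration that halves growth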
Description: SANGER: Inhibition of human SBC-1 cell growth in a cell viability assay.

KY821 = settings: Homo sapiens, KY821;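 also: growth inhibition of human KY821 cells, read out by a cell viability assay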
Description: SANGER: Inhibition of human KY821 cell growth in a cell viability assay.

MOLT-16 = settings: Homo sapiens, MOLT-16;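 also: growth inhibition of human MOLT-16 cells, read out with a cell viability assay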
Description: SANGER: Inhibition of human MOLT-16 cell growth in a cell viability assay.

P30-OHK = settings: Homo sapiens, P30-OHK;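 also: growth inhibition of the P30-OHK cell line, read out with a cell viability assay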
Description: SANGER: Inhibition of human P30-OHK cell growth in a cell viability assay.

CC(C)c1ccccc1Cc1cc(C(=O)Nc2ccc(S(=O)(=O)c3ccccc3C(C)(C)C)cc2)c(O)c(O)c1O
IC50 (TK-10): 0.462 µM | IC50 (KALS-1): 0.253 µM | IC50 (MZ2-MEL): 0.212 µM | IC50 (RKO): 0.0152 µM | IC50 (LS-513): 0.607 µM | IC50 (NEC8): 0.145 µM | IC50 (TE-11): 0.151 µM | IC50 (PSN1): 0.167 µM | IC50 (SW872): 0.0589 µM | IC50 (ES4): 0.516 µM | IC50 (NCI-H1650): 4.92 µM | IC50 (NCI-N87): 2.2 µM | IC50 (LB373-MEL-D): 0.431 µM | IC50 (CW-2): 0.446 µM | IC50 (LS-411N): 1.24 µM | IC50 (EC-GI-10): 0.47 µM | IC50 (NCI-H1581): 0.0676 µM | IC50 (A101D): 0.0875 µM | IC50 (LC-2-ad): 0.424 µM | IC50 (NOS-1): 0.235 µM | IC50 (KGN): 0.436 µM | IC50 (NB10): 0.215 µM | IC50 (ES6): 0.373 µM | IC50 (ES7): 0.27 µM | IC50 (BT-474): 3.87 µM | IC50 (SW684): 8.83 µM | IC50 (SCH): 0.367 µM | IC50 (TE-10): 1.23 µM | IC50 (LB831-BLC): 0.745 µM | IC50 (ES5): 0.884 µM | IC50 (NMC-G1): 0.505 µM | IC50 (KINGS-1): 2.75 µM | IC50 (GI-ME-N): 0.403 µM | IC50 (NCI-H1648): 1.12 µM | IC50 (ACN): 0.696 µM

CC(C)CCN1c2nc(Nc3cc(F)c(O)c(F)c3)ncc2N(C)C(=O)C1C (stereo not given)
IC50 (TK-10): > 5 µM | IC50 (KALS-1): > 5 µM | IC50 (MZ2-MEL): > 5 µM | IC50 (Lu-65): > 5 µM | IC50 (RKO): 4.73 µM | IC50 (LS-513): > 5 µM | IC50 (NEC8): 1.7 µM | IC50 (TE-11): > 5 µM | IC50 (KG-1): 3.61 µM | IC50 (PSN1): 3.06 µM | IC50 (SW872): > 5 µM | IC50 (K562): > 5 µM | IC50 (ES4): 1.85 µM | IC50 (JVM-2): > 5 µM | IC50 (NCI-H1650): > 5 µM | IC50 (NCI-N87): > 5 µM | IC50 (KARPAS-45): 0.165 µM | IC50 (LB373-MEL-D): > 5 µM | IC50 (NOMO-1): > 5 µM | IC50 (CW-2): > 5 µM | IC50 (LS-411N): > 5 µM | IC50 (NCI-H1581): > 5 µM | IC50 (A101D): 4.97 µM | IC50 (KE-37): 1.59 µM | IC50 (LC-2-ad): > 5 µM | IC50 (NOS-1): > 5 µM | IC50 (KGN): > 5 µM | IC50 (RPMI-8226): > 5 µM | IC50 (NB10): 1.78 µM | IC50 (NCI-H446): 3.68 µM | IC50 (ES6): > 5 µM | IC50 (JVM-3): 3.07 µM | IC50 (KARPAS-299): > 5 µM | IC50 (ES7): 0.916 µM | IC50 (BT-474): > 5 µM | IC50 (SW684): > 5 µM | IC50 (SCH): > 5 µM | IC50 (TE-10): > 5 µM | IC50 (LB831-BLC): 3.54 µM | IC50 (ES5): 2.24 µM | IC50 (SBC-1): 0.695 µM | IC50 (NMC-G1): > 5 µM | IC50 (KY821): 0.888 µM | IC50 (KINGS-1): > 5 µM | IC50 (GI-ME-N): > 5 µM | IC50 (NCI-H1648): > 5 µM | IC50 (ACN): 2.67 µM | IC50 (MOLT-16): > 5 µM | IC50 (P30-OHK): > 5 µM

COc1cc2ncn(-c3cc(OCc4ccccc4S(C)(=O)=O)c(C#N)s3)c2cc1OC [GSK-319347A]
IC50 (TK-10): > 5 µM | IC50 (KALS-1): > 5 µM | IC50 (MZ2-MEL): > 5 µM | IC50 (Lu-65): > 5 µM | IC50 (RKO): > 5 µM | IC50 (LS-513): > 5 µM | IC50 (NEC8): > 5 µM | IC50 (KG-1): > 5 µM | IC50 (PSN1): > 5 µM | IC50 (SW872): > 5 µM | IC50 (K562): > 5 µM | IC50 (ES4): > 5 µM | IC50 (JVM-2): > 5 µM | IC50 (NCI-H1650): > 5 µM | IC50 (NCI-N87): > 5 µM | IC50 (KARPAS-45): > 5 µM | IC50 (LB373-MEL-D): > 5 µM | IC50 (NOMO-1): > 5 µM | IC50 (CW-2): > 5 µM | IC50 (LS-411N): > 5 µM | IC50 (EC-GI-10): > 5 µM | IC50 (NCI-H1581): > 5 µM | IC50 (A101D): > 5 µM | IC50 (KE-37): > 5 µM | IC50 (LC-2-ad): > 5 µM | IC50 (NOS-1): > 5 µM | IC50 (KGN): > 5 µM | IC50 (RPMI-8226): > 5 µM | IC50 (NB10): > 5 µM | IC50 (NCI-H446): > 5 µM | IC50 (ES6): > 5 µM | IC50 (JVM-3): > 5 µM | IC50 (KARPAS-299): > 5 µM | IC50 (ES7): > 5 µM | IC50 (BT-474): > 5 µM | IC50 (SW684): > 5 µM | IC50 (SCH): > 5 µM | IC50 (TE-10): > 5 µM | IC50 (LB831-BLC): > 5 µM | IC50 (ES5): > 5 µM | IC50 (SBC-1): > 5 µM | IC50 (NMC-G1): > 5 µM | IC50 (KY821): > 5 µM | IC50 (KINGS-1): > 5 µM | IC50 (GI-ME-N): > 5 µM | IC50 (NCI-H1648): > 5 µM | IC50 (ACN): > 5 µM | IC50 (MOLT-16): > 5 µM | IC50 (P30-OHK): > 5 µM

CN(C)C(=N)NC(=N)N [METFORMIN]
IC50 (TK-10): > 20000 µM | IC50 (MZ2-MEL): > 20000 µM | IC50 (Lu-65): 511 µM | IC50 (RKO): > 20000 µM | IC50 (LS-513): > 20000 µM | IC50 (NEC8): 16000 µM | IC50 (TE-11): > 20000 µM | IC50 (KG-1): 16800 µM | IC50 (PSN1): > 20000 µM | IC50 (ES4): > 20000 µM | IC50 (JVM-2): > 20000 µM | IC50 (NCI-N87): > 20000 µM | IC50 (KARPAS-45): 3050 µM | IC50 (NOMO-1): > 20000 µM | IC50 (CW-2): 4120 µM | IC50 (LS-411N): 10400 µM | IC50 (EC-GI-10): > 20000 µM | IC50 (NCI-H1581): 14900 µM | IC50 (A101D): > 20000 µM | IC50 (KE-37): 7490 µM | IC50 (NOS-1): > 20000 µM | IC50 (KGN): > 20000 µM | IC50 (ES6): > 20000 µM | IC50 (JVM-3): > 20000 µM | IC50 (KARPAS-299): > 20000 µM | IC50 (ES7): > 20000 µM | IC50 (BT-474): > 20000 µM | IC50 (SCH): > 20000 µM | IC50 (TE-10): > 20000 µM | IC50 (LB831-BLC): > 20000 µM | IC50 (ES5): 14700 µM | IC50 (SBC-1): 6930 µM | IC50 (NMC-G1): > 20000 µM | IC50 (KY821): 1530 µM | IC50 (KINGS-1): > 20000 µM | IC50 (GI-ME-N): > 20000 µM | IC50 (NCI-H1648): > 20000 µM | IC50 (MOLT-16): > 20000 µM | IC50 (P30-OHK): 2760 µM

CCN(CC)CCCCNc1ncc2cc(-c3cc(OC)cc(OC)c3)c(NC(=O)NC(C)(C)C)nc2n1 [PD-173074]
IC50 (TK-10): > 2 µM | IC50 (KALS-1): > 2 µM | IC50 (MZ2-MEL): > 2 µM | IC50 (Lu-65): > 2 µM | IC50 (RKO): > 2 µM | IC50 (LS-513): > 2 µM | IC50 (NEC8): 0.563 µM | IC50 (TE-11): > 2 µM | IC50 (KG-1): 0.0513 µM | IC50 (PSN1): > 2 µM | IC50 (SW872): > 2 µM | IC50 (K562): > 2 µM | IC50 (ES4): > 2 µM | IC50 (JVM-2): > 2 µM | IC50 (NCI-H1650): > 2 µM | IC50 (NCI-N87): > 2 µM | IC50 (KARPAS-45): > 2 µM | IC50 (NOMO-1): > 2 µM | IC50 (CW-2): > 2 µM | IC50 (LS-411N): > 2 µM | IC50 (NCI-H1581): 0.0123 µM | IC50 (A101D): > 2 µM | IC50 (KE-37): > 2 µM | IC50 (LC-2-ad): > 2 µM | IC50 (NOS-1): > 2 µM | IC50 (KGN): > 2 µM | IC50 (RPMI-8226): > 2 µM | IC50 (NB10): > 2 µM | IC50 (NCI-H446): > 2 µM | IC50 (ES6): > 2 µM | IC50 (JVM-3): > 2 µM | IC50 (KARPAS-299): > 2 µM | IC50 (ES7): > 2 µM | IC50 (BT-474): > 2 µM | IC50 (SW684): > 2 µM | IC50 (SCH): > 2 µM | IC50 (TE-10): > 2 µM | IC50 (LB831-BLC): > 2 µM | IC50 (ES5): > 2 µM | IC50 (SBC-1): > 2 µM | IC50 (NMC-G1): > 2 µM | IC50 (KY821): > 2 µM | IC50 (KINGS-1): > 2 µM | IC50 (GI-ME-N): > 2 µM | IC50 (NCI-H1648): > 2 µM | IC50 (ACN): > 2 µM | IC50 (MOLT-16): > 2 µM | IC50 (P30-OHK): > 2 µM

Reference: ChEMBL document CHEMBL1201861, “Genomics of Drug Sensitity in Cancer screening data, Wellcome Trust Sanger Institute”
